Literature values as cited in patent US8022220B2, “Process for production of piperidine derivatives” (Albany Molecular Research, Inc., priority 1995, dated 2011).

Tested on: delayed rectifier potassium current
Settings: concentrations up to 5 μM; isolated feline ventricular myocytes

Q: For CC(C)(C(=O)O)c1ccc(C(O)CCCN2CCC(C(O)(c3ccccc3)c3ccccc3)CC2)cc1 (stereo not drawn) [terfenadine carboxylic acid metabolite, 4-[4-[4-(hydroxydiphenylmethyl)-1-piperidinyl]-1-hydroxybutyl]-α-α-dimethylphenylacetic acid], which “effect on the potassium current” value is on record?
A: The value was “no significant effect”.
